The subject of assay [1] is gabapentin binding site. The assay can be described thus: Gabapentin binding assay (displacement of gabapentin from its binding site). Here is the method:
Gabapentin is used in the binding assay in order to check the binding and affinities of the selected compounds. The affinity of the compounds according to the invention is measured via the displacement of gabapentin from its binding site.

The subject of assay [2] is phenylquinone-induced writhing. The experiment in a line: Phenylquinone-induced writhing test in mice. It counts as in vivo. Conditions: male NMRI mice, groups of 10.

On to `COc1cccc(C2CCCC(CN(C)C)C2(O)c2ccc(C)cc2)c1` (stereo not shown) [Example 76, 2-dimethylaminomethyl-6-(3-methoxyphenyl)-1-p-tolylcyclohexanol], for which the “% Inhibition Gabapentin, 10 μmole” value in assay [1] is reported as 53%.
On to `CN(C)CC1CCCC(Cc2ccccc2)C1(O)c1cccc(O)c1` (stereo not shown) [Example 88, 3-(2-benzyl-6-dimethylaminomethyl-1-hydroxycyclohexyl)-phenol], for which the “Reacting Animals/Control Animals (Writhing)” value in assay [2] (10 mg/kg, iv) is on record as 2/10 (10 mg/kg; iv).
Turning to `COc1cccc(C2CCCC(CN(C)C)C2(O)c2ccc(Cl)cc2)c1` (stereo not shown) [Example 85, 1-(4-chlorophenyl)-2-dimethylaminomethyl-6-(3-methoxyphenyl)-cyclohexanol], in assay [2] (46.4 mg/kg, iv), the “Reacting Animals/Control Animals (Writhing)” value is recorded as 10/10 (46.4 mg/kg; iv).
For the compound `CN(C)CC1CCCC(c2cccc(O)c2)C1(O)c1ccc(F)cc1` (stereo not shown) [Example 81, 3-[3-dimethylaminomethyl-2-(4-fluorophenyl)-2-hydroxycyclohexyl]-phenol], the “% Inhibition Gabapentin, 10 μmole” value in assay [1] turned out to be 48%.
As to `COc1cccc(C2CCCC(CN(C)C)C2(O)c2cccc(Cl)c2)c1` (stereo not shown) [Example 75, 1-(3-chlorophenyl)-2-dimethylaminomethyl-6-(3-methoxyphenyl)-cyclohexanol], in assay [1], the “% Inhibition Gabapentin, 10 μmole” value was 54%.
In the case of `COc1cccc(C2(O)C(CN(C)C)CCCC2C2CCCCC2)c1` (stereo not shown) [Example 86, 3-dimethylaminomethyl-2-(3-methoxyphenyl)-bicyclohexyl-2-ol], the “Reacting Animals/Control Animals (Writhing)” value in assay [2] (21.5 mg/kg, po) was 3/10 (21.5 mg/kg; po).
As to `COc1cccc(C2CCCC(CN(C)C)C2(O)c2ccc(Cl)cc2)c1` (stereo not shown) [Example 45, 1-(4-chlorophenyl)-2-dimethylaminomethyl-6-(3-methoxyphenyl)-cyclohexanol], the “% Inhibition Gabapentin, 10 μmole” value in assay [1] came out at 58%.
For `CN(C)CC1CCCC(Cc2ccccc2)C1(O)c1ccc(C(F)(F)F)cc1` (stereo not shown) [Example 87, 2-benzyl-6-dimethylaminomethyl-1-(4-trifluoromethylphenyl)-cyclohexanol], the “Reacting Animals/Control Animals (Writhing)” value in assay [2] (10 mg/kg, iv) is recorded as 2/10 (10 mg/kg; iv).
Regarding `CN(C)CC1CCCC(c2cccc(O)c2)C1(O)c1ccccc1` (stereo not shown) [Example 82, 3-(3-dimethylaminomethyl-2-hydroxy-2-phenylcyclohexyl)-phenol], the “% Inhibition Gabapentin, 10 μmole” value in assay [1] was 55%.
Consider `CN(C)CC1CCCC(C(C)(C)C)C1(O)c1cccc(O)c1` (stereo not shown) [Example 89, 3-(2-tert.-butyl-6-dimethylaminomethyl-1-hydroxycyclohexyl)-phenol], for which, in assay [2] (10 mg/kg, iv), the “Reacting Animals/Control Animals (Writhing)” value was 3/10 (10 mg/kg; iv).
